# Results from patent US20210121542A1, “COMPOSITION FOR […] OF PROTEIN TH[…] ORAL, SUBLINGUAL AND BUCCAL ROUTE” (Prime Bio, Inc., priority 2019, published 2021).
# Test system: trypsin
# Type: in vitro ADME
substance,measurement,value
bovine serum albumin [BSA],% Relative Protection (compared with BSA + Trypsin),0%
